Source: patent EP0891991A2, “Tris(pentafluorophenyl)borate complexes and catalysts derived therefrom” (MINNESOTA MINING AND MANUFACTURING COMPANY, priority 1995, dated 1996)

Experiment: Stability of tris(pentafluorophenyl)borane hydrates
Assay type: physicochemical
Details: in solution or in the solid state
Excerpt: Of the class of compounds of the type (C6F5)3B-(YXH)q, when Y is hydrogen, X is oxygen, and q is 1 or 3, the complex with water is a special case. Exposure of anhydrous (C6F5)3B to water vapor, produces (C6F5)3B·3H2O, a white, stable solid. No intermediate hydrate was detected by infrared spectroscopic analysis. […] Formation of a trihydrate was unexpected because all other previously known (C6F5)3B complexes with Lewis bases have a 1:1 stoichiometry. Vacuum sublimation of the trihydrate produced a mixture of the monohydrate and (C6F5)3B. The pure monohydrate, (C6F5)3B·H2O, however may be obtained by combining in organic solvents, such as toluene or chloroform, one equivalent of (C6F5)3B·3H2O with two equivalents of (C6F5)3B followed by evaporation of the solvent. This conproportionation reaction is a convenient way of synthesizing the monohydrate as needed. […] The monohydrate may also be prepared by combining one mole each of water and (C6F5)3B.

stability: unstable and slowly decomposes
Compound: Fc1c(F)c(F)c(B(c2c(F)c(F)c(F)c(F)c2F)c2c(F)c(F)c(F)c(F)c2F)c(F)c1F.O [Example 2]
